According to PMC3119665, “A New Drug Design Targeting the Adenosinergic System for Huntington's Disease” (PLoS ONE, 2011):

How the values were obtained:
hERG potassium channel = target: T1, hERG potassium channel (Homo sapiens, UniProt Q12809); experiment: Radioligand binding panel (Table S1); details: 10 μM T1-11, n 2
T1 construct: purchased MDS Pharma Services Taiwan

Thyroid Hormone = experiment: Radioligand binding panel (Table S1); parameters: species or system rat; details: 10 μM T1-11, n 2
Neurotensin NT 1 = target: T2, Neurotensin NT 1 (Homo sapiens, UniProt P30989); experiment: Radioligand binding panel (Table S1); details: 10 μM T1-11, n 2
T2 construct: purchased MDS Pharma Services Taiwan

Interleukin IL-1 = target: T3, Interleukin IL-1 (Mus musculus, UniProt P13504); experiment: Radioligand binding panel (Table S1); details: 10 μM T1-11, n 2
T3 construct: purchased MDS Pharma Services Taiwan

Prostanoid DP = target: T4, Prostanoid DP (Homo sapiens, UniProt Q13258); experiment: Radioligand binding panel (Table S1); details: 10 μM T1-11, n 2
T4 construct: purchased MDS Pharma Services Taiwan

Sigma σ2 = target: T5, Sigma σ2 (Rattus norvegicus, UniProt Q5U3Y7); experiment: Radioligand binding panel (Table S1); details: 10 μM T1-11, n 2
T5 construct: purchased MDS Pharma Services Taiwan

Chemokine CCR5 = target: T6, Chemokine CCR5 (Homo sapiens, UniProt P51681); experiment: Radioligand binding panel (Table S1); details: 10 μM T1-11, n 2
T6 construct: purchased MDS Pharma Services Taiwan

GABAB1B = target: T7, GABAB1B (Homo sapiens, UniProt Q9UBS5); experiment: Radioligand binding panel (Table S1); details: 10 μM T1-11, n 2
T7 construct: purchased MDS Pharma Services Taiwan

[1] = target: T8, Prostanoid, Thromboxane A2 (TP) (Homo sapiens, UniProt P21731); experiment: Radioligand binding panel (Table S1); details: 10 μM T1-11, n 2
T8 construct: purchased MDS Pharma Services Taiwan

Endothelin ETB = target: T9, Endothelin ETB (Homo sapiens, UniProt P24530); experiment: Radioligand binding panel (Table S1); details: 10 μM T1-11, n 2
T9 construct: purchased MDS Pharma Services Taiwan

Aldosterone = target: T10, Aldosterone (Rattus norvegicus, UniProt P22199); experiment: Radioligand binding panel (Table S1); details: 10 μM T1-11, n 2
T10 construct: purchased MDS Pharma Services Taiwan

Progesterone PR-B = target: T11, Progesterone PR-B (Homo sapiens, UniProt P06401); experiment: Radioligand binding panel (Table S1); details: 10 μM T1-11, n 2
T11 construct: purchased MDS Pharma Services Taiwan

Gabapentin = experiment: Radioligand binding panel (Table S1); parameters: species or system rat; details: 10 μM T1-11, n 2
Opiate, Non-Selective = experiment: Radioligand binding panel (Table S1); parameters: species or system rat; details: 10 μM T1-11, n 2
[2] = target: T12, Platelet Activating Factor (PAF) (Homo sapiens, UniProt P25105); experiment: Radioligand binding panel (Table S1); details: 10 μM T1-11, n 2
T12 construct: purchased MDS Pharma Services Taiwan

Somatostatin sst3 = target: T13, Somatostatin sst3 (Homo sapiens, UniProt P32745); experiment: Radioligand binding panel (Table S1); details: 10 μM T1-11, n 2
T13 construct: purchased MDS Pharma Services Taiwan

[3] = target: T14, Benzodiazepine, Peripheral (Rattus norvegicus, UniProt P16257); experiment: Radioligand binding panel (Table S1); details: 10 μM T1-11, n 2
T14 construct: purchased MDS Pharma Services Taiwan

Orphanin ORL1 = target: T15, Orphanin ORL1 (Homo sapiens, UniProt P41146); experiment: Radioligand binding panel (Table S1); details: 10 μM T1-11, n 2
T15 construct: purchased MDS Pharma Services Taiwan

Rolipram = experiment: Radioligand binding panel (Table S1); parameters: species or system rat; details: 10 μM T1-11, n 2
A2A adenosine receptor = target: T16, A2A adenosine receptor (Homo sapiens, UniProt P29274); experiment: Radioligand binding assay
T16 construct: host or cells: HEK293

[4] = test system: GABAA, Chloride Channel, TBPS; experiment: Radioligand binding panel (Table S1); parameters: species or system rat; details: 10 μM T1-11, n 2
[5] = target: T17, Serotonin (5-Hydroxytryptamine) 5-HT5A (Homo sapiens, UniProt P47898); experiment: Radioligand binding panel (Table S1); details: 10 μM T1-11, n 2
T17 construct: purchased MDS Pharma Services Taiwan

[6] = test system: Vascular Endothelial Growth Factor (VEGF); experiment: Radioligand binding panel (Table S1); parameters: species or system human; details: 10 μM T1-11, n 2
[7] = test system: Imidazoline I2, Peripheral; experiment: Radioligand binding panel (Table S1); parameters: species or system rat; details: 10 μM T1-11, n 2
[8] = test system: Glutamate, NMDA, Phencyclidine; experiment: Radioligand binding panel (Table S1); parameters: species or system rat; details: 10 μM T1-11, n 2
[9] = test system: Glycine, Strychnine-Sensitive; experiment: Radioligand binding panel (Table S1); parameters: species or system rat; details: 10 μM T1-11, n 2
[10] = test system: Serotonin (5-Hydroxytryptamine) 5-HT2, Non-Selective; experiment: Radioligand binding panel (Table S1); parameters: species or system rat; details: 10 μM T1-11, n 2
Somatostatin sst1 = target: T18, Somatostatin sst1 (Homo sapiens, UniProt P30872); experiment: Radioligand binding panel (Table S1); details: 10 μM T1-11, n 2
T18 construct: purchased MDS Pharma Services Taiwan

Anaphylatoxin C5a = target: T19, Anaphylatoxin C5a (Homo sapiens, UniProt P21730); experiment: Radioligand binding panel (Table S1); details: 10 μM T1-11, n 2
T19 construct: purchased MDS Pharma Services Taiwan

Adrenergic α 2B = target: T20, Adrenergic α 2B (Homo sapiens, UniProt P18089); experiment: Radioligand binding panel (Table S1); details: 10 μM T1-11, n 2
T20 construct: purchased MDS Pharma Services Taiwan

Transporter, Choline = target: T21, Transporter, Choline (Rattus norvegicus, UniProt Q9JMD7); experiment: Radioligand binding panel (Table S1); details: 10 μM T1-11, n 2
T21 construct: purchased MDS Pharma Services Taiwan

Leptin = target: T22, Leptin (Mus musculus, UniProt P48356); experiment: Radioligand binding panel (Table S1); details: 10 μM T1-11, n 2
T22 construct: purchased MDS Pharma Services Taiwan

Phosphodiesterase PDE3 = target: T23, Phosphodiesterase PDE3 (Homo sapiens, UniProt Q14432); experiment: Radioligand binding panel (Table S1); details: 10 μM T1-11, n 2
T23 construct: purchased MDS Pharma Services Taiwan

striatal adenosine = experiment: In vivo brain dialysis and adenosine measurement; parameters: species or system mice; details: T1-11 100 µM perfused through the dialysis probe
Description: The level of adenosine in the brain was determined using microdialysis as previously described, [73]. In brief, concentrated dialysis probes with 4-mm dialysis membranes (CMA, Stockholm, Sweden) were used to monitor the extracellular adenosine in the striatum of rats. After inducing anesthesia with chloral hydrate ([…], IP), rats were implanted with the probe, and the coordinates for implantation were AP +1.0 mm, LM +2.8 mm, and VD −6.5 mm. Ringer's solution (140 mM NaCl, 1.2 mM CaCl2, 3.0 mM KCl, 1.0 mM MgCl2, and 0.04 mM ascorbic acid) was continuously perfused (0.5 µl/min) via probes throughout the experiments. After implantation and perfusion for 1.5 h, the perfusate was collected for 1 h as a baseline and then Ringer's solution containing T1-11 (100 µM) was perfused for another 1 h. The perfusate was analyzed by high-performance liquid chromatography (HPLC; Agilent 1100 series, Germany) coupled with a photo diode array detector (Agilent G1315B,) at 260 nm. Separations were obtained with a reversed-phase column (Cosmosil 5C18-AR-II, 250×4.6 mm, Kyoto, Japan) eluted at a flow rate of 1.0 ml/min with a linear solvent gradient elution system composed of eluents A and B (A: 0.0085% H3PO4 in H2O; B: 100% acetonitrile) according to the following profile: 0∼15 min, 100%∼90% A, 0%∼10% B.

Estrogen ERα = target: T24, Estrogen ERα (Homo sapiens, UniProt P03372); experiment: Radioligand binding panel (Table S1); details: 10 μM T1-11, n 2
T24 construct: purchased MDS Pharma Services Taiwan

[11] = HEK293 membranes, 3H-CGS21680 50 nM

T16 sequence (P29274 whole entry): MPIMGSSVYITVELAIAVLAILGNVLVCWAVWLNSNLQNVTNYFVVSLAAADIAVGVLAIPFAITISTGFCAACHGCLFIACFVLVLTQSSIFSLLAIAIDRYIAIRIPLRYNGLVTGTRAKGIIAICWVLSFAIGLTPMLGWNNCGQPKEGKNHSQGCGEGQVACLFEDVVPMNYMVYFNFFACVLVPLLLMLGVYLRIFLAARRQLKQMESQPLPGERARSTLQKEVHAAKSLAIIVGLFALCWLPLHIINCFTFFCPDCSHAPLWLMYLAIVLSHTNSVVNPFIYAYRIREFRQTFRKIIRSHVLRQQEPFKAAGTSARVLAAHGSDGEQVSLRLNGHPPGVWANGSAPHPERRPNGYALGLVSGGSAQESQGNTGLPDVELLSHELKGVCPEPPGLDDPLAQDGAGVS
T4 sequence (Q13258 whole entry): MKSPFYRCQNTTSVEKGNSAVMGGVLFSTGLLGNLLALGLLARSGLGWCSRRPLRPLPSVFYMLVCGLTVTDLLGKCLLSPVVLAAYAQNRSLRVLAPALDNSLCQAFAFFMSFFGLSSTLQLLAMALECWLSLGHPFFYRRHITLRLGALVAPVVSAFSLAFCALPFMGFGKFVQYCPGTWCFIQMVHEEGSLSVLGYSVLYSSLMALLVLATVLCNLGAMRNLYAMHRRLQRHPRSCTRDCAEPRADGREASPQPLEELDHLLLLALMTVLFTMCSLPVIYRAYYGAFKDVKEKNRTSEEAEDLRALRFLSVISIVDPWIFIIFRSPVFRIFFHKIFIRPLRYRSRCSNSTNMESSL
T24 sequence (P03372 whole entry): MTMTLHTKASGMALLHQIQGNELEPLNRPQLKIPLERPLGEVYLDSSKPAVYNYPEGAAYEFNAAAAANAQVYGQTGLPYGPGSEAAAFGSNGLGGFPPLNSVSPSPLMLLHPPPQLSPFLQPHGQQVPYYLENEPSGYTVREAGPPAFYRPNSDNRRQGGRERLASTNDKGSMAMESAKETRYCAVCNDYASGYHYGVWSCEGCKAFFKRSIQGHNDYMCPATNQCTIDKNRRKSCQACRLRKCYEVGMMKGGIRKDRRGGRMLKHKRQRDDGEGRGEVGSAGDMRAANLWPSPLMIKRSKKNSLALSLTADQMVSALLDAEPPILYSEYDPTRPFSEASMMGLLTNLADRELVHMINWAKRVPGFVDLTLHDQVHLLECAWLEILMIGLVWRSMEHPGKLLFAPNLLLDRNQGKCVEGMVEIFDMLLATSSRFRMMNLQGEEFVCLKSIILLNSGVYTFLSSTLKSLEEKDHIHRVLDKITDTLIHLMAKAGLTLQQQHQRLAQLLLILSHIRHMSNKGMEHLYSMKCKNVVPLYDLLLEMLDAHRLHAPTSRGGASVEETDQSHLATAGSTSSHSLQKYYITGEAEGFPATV
T13 sequence (P32745 whole entry): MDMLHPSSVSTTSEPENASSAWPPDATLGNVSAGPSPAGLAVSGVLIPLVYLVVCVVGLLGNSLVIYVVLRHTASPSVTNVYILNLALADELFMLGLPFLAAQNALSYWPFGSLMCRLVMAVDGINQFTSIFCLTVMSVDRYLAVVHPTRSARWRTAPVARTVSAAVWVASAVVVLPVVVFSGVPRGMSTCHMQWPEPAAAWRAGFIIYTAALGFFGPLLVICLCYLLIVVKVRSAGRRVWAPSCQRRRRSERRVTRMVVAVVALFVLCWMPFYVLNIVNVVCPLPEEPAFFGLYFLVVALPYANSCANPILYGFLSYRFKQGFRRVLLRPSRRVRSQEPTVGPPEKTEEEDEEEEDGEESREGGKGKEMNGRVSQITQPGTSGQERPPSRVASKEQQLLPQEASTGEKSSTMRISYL
T23 sequence (Q14432 whole entry): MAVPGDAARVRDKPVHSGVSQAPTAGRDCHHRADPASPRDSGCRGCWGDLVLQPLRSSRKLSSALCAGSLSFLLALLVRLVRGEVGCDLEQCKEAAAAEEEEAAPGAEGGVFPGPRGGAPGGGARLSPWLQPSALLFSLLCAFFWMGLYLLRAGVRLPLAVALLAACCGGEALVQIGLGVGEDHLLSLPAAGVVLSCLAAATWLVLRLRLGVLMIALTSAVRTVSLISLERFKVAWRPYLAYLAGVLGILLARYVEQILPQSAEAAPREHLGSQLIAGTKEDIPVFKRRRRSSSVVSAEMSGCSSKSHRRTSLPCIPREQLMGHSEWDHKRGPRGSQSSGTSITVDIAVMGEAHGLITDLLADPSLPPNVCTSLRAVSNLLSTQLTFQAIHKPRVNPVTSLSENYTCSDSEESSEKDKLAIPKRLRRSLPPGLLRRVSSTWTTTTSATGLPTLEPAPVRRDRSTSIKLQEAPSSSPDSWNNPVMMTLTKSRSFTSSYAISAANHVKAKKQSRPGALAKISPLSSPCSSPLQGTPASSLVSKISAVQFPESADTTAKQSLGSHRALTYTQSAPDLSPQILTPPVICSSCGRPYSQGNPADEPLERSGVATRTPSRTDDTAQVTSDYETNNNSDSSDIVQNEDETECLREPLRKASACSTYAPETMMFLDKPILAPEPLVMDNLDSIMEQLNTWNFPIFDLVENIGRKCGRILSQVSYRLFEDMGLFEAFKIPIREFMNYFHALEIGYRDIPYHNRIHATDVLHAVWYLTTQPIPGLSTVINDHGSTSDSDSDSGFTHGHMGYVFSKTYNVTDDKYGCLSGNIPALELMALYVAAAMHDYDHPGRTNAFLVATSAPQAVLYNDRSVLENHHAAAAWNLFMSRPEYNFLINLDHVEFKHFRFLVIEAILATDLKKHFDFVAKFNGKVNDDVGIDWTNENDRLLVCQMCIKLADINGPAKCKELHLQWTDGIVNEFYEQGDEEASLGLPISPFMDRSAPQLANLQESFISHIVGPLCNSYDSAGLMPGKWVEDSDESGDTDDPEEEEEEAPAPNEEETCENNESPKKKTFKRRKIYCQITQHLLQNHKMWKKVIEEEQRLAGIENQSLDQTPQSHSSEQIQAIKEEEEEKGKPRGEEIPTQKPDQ
T15 sequence (P41146 whole entry): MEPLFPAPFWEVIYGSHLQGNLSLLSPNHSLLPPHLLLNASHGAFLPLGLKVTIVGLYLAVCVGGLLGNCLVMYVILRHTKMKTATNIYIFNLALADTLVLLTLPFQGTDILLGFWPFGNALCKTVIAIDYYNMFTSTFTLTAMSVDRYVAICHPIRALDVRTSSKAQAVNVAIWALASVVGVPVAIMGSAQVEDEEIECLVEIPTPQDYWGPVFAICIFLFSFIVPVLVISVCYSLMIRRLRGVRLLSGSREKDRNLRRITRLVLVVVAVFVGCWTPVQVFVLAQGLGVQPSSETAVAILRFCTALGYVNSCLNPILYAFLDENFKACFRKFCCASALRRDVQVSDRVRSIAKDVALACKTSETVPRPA
T8 sequence (P21731 whole entry): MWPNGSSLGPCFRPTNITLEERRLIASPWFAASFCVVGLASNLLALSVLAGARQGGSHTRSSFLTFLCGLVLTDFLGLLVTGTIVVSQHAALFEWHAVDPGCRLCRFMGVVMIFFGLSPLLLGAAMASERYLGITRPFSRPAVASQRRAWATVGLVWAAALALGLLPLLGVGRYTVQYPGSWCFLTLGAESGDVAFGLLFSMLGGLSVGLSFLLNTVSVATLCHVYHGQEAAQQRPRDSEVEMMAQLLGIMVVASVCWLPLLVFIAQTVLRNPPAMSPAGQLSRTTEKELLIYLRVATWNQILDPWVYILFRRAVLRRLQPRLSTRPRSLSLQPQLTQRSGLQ
T10 sequence (P22199 whole entry): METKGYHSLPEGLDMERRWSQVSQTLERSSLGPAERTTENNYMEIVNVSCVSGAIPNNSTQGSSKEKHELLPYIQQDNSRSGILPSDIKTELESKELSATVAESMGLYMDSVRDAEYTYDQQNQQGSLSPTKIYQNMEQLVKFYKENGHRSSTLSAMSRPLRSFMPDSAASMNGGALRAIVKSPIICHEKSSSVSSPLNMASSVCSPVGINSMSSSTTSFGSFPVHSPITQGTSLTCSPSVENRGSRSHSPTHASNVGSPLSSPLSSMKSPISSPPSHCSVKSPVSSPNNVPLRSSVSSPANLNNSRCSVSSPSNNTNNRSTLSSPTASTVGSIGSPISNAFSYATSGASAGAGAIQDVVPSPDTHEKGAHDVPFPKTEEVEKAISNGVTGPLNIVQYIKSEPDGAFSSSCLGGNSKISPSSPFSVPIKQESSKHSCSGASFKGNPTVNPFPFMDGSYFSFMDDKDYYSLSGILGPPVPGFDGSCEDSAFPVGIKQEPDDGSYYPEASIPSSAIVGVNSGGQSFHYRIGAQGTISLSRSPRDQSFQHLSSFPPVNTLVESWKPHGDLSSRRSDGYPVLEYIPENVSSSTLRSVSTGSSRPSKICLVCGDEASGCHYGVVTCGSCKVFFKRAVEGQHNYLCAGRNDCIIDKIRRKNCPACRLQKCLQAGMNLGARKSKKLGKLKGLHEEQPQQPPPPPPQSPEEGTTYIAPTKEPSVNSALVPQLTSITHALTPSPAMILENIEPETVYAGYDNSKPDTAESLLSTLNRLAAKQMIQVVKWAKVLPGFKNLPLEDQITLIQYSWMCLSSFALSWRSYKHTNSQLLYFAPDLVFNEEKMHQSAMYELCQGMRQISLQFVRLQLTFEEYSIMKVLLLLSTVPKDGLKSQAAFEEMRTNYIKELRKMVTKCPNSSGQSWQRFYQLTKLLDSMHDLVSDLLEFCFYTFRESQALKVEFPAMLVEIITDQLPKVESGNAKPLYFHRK
T18 sequence (P30872 whole entry): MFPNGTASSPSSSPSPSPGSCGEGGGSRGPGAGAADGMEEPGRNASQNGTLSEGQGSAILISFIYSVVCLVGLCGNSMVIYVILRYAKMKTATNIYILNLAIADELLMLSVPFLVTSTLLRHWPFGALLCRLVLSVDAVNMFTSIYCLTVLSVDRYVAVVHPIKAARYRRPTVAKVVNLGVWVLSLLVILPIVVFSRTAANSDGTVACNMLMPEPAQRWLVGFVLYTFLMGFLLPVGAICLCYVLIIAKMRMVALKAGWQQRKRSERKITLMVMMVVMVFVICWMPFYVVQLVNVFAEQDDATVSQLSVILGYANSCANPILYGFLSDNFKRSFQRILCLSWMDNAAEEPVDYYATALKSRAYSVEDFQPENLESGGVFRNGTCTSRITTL

Compound: OC[C@H]1O[C@@H](n2cnc3c(NCc4ccc(O)cc4)ncnc32)[C@H](O)[C@@H]1O [T1-11, N ^6-(4-hydroxybenzyl)adenine riboside]
- inhibition at 10 µM (hERG potassium channel): -2%
- % Inhibition (Thyroid Hormone): -9%
- inhibition at 10 µM (Neurotensin NT 1): 11%
- inhibition at 10 µM (Interleukin IL-1): 4%
- inhibition at 10 µM (Prostanoid DP): 17%
- inhibition at 10 µM (Sigma σ2): -3%
- inhibition at 10 µM (Chemokine CCR5): -8%
- inhibition at 10 µM (GABAB1B): -5%
- inhibition at 10 µM [1]: 1%
- inhibition at 10 µM (Endothelin ETB): 2%
- inhibition at 10 µM (Aldosterone): 2%
- inhibition at 10 µM (Progesterone PR-B): -8%
- % Inhibition (Gabapentin): 8%
- % Inhibition (Opiate, Non-Selective): -13%
- inhibition at 10 µM [2]: 7%
- inhibition at 10 µM (Somatostatin sst3): 15%
- inhibition at 10 µM [3]: 3%
- inhibition at 10 µM (Orphanin ORL1): 10%
- % Inhibition (Rolipram): -6%
- inhibition at 10 µM (A2A adenosine receptor; 10 μM T1-11, n 2): 58%
- IC50 (A2A adenosine receptor; [11]): 4.66 µM
- Ki (A2A adenosine receptor; [11]): 2.62 µM
- % Inhibition [4]: 6%
- inhibition at 10 µM [5]: -7%
- % Inhibition [6]: 16%
- % Inhibition [7]: 10%
- % Inhibition [8]: -2%
- % Inhibition [9]: 10%
- % Inhibition [10]: 15%
- inhibition at 10 µM (Somatostatin sst1): -3%
- inhibition at 10 µM (Anaphylatoxin C5a): 2%
- inhibition at 10 µM (Adrenergic α 2B): 2%
- inhibition at 10 µM (Transporter, Choline): -10%
- inhibition at 10 µM (Leptin): 6%
- inhibition at 10 µM (Phosphodiesterase PDE3): 0%
- Level of striatal adenosine (microdialysis) (striatal adenosine): significantly enhanced the level of striatal adenosine
- inhibition at 10 µM (Estrogen ERα): 32%
